Here are results for one compound from patent publication US8481597B2, “Use of (-) (3-trihalomethylphenoxy) (4-halophenyl) acetic acid derivatives for treatment of insulin resistance, type 2 diabetes, hyperlipidemia and hyperuricemia” (Metabolex, Inc., priority 1999, dated 2013).

This experiment has as its target T1, cyclooxygenase 1 (COX-1) (Homo sapiens, UniProt P23219).
T1 construct: was conducted using fresh human blood from healthy donors; endogenous in cells; host or cells: heparinized fresh human whole blood, stimulated with calcium ionophore A23187
The experiment in a line: COX-1 inhibition in human whole blood assay, TXB2 production (Example 19). It is filed as cell-based. The protocol:
An assay for cyclooxygenase 1 (COX-1) inhibition by the compounds of the present invention was conducted using fresh human blood from healthy donors. […] The enzyme was activated by the commercially available calcium ionophore A23187.
This bioassay is based on the production of thromboxane B2 (TXB2) after COX-1 activation. When activated, COX-1 generates prostaglandin H2 which is then converted to thromboxane A2 (TXA2) by thromboxane synthase and then finally to thromboxane B2 by non-enzymatic […]. In addition, PGE2 levels were measured to exclude inhibition of thromboxane synthase. This assay allows discrimination between COX-1 and thromboxane synthase inhibition.
TXB2 and PGE2 were measured by commercially available immunoassay kits purchased from Assay Designs, Inc. (Ann Arbor, Mich.). All other chemicals were from Sigma except as noted. […] Immediately before use, all compounds were diluted 1:10 in RPMI-1640 medium (Gibco BRL, 11875-093) to make a 10× concentrated stock solution. The 10×RPMI-1640 stock solutions of the calcium ionophore were prepared in an identical manner. […] COX-1 was then activated by adding 25 microliters of the 10× stock solution of 25 micromolar calcium ionophore. The plates were shaken for 10 minutes at room temperature and then incubated at 37° C. for an additional 30 minutes. After these incubation times, the plates were centrifuged at 2,000 g for 5 minutes. Two microliters of plasma were taken from each reaction for the measurement of TXB2 using an enzyme immunoassay kit from Assay Designs, Inc. The PGE2 level in the same reaction was measured using a PGE2 enzyme immunoassay kit from Assay Designs, Inc.
The results of the assay are presented as the percent inhibition of COX-1 activity.

Entries after “also recorded” stand apart in the source; their conditions may differ.

T1 sequence (P23219 24-599): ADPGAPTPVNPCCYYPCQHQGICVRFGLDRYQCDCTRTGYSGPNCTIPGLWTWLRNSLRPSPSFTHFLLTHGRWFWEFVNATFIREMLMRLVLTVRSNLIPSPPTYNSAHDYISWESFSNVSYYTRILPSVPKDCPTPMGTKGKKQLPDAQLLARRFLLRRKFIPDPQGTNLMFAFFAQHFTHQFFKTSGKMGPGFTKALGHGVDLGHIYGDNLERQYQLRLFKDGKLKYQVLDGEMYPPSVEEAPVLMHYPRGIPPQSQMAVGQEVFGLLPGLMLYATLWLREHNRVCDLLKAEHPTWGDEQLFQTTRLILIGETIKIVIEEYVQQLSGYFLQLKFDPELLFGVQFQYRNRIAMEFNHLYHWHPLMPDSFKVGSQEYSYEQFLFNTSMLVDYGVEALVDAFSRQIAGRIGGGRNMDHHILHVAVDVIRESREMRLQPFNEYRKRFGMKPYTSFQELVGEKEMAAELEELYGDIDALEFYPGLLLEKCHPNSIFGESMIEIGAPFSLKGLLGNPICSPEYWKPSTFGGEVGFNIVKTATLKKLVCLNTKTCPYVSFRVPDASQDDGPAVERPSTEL

As for `CC(=O)NCCOC(=O)C(Oc1cccc(C(F)(F)F)c1)c1ccc(Cl)cc1` (single isomer, unassigned; (-)) [(−) halofenate, (−) 2-acetamidoethyl 4-chlorophenyl-(3-trifluoromethylphenoxy)acetate], under “heparinized fresh human blood, calcium ionophore A23187, TXB2 readout, read-out: IC50, inhibition of the COX-1 enzyme in blood”, the concentration for half-maximal inhibition (IC50) is more than 3 mM. The “inhibition of COX-1, in words” value (human whole blood assay) was “substantially weaker and ineffective inhibitor of the COX-1 enzyme; also recorded: much less effective than the racemate in inhibiting COX-1”.
